Results from US6909029B2, “Caenorhabditis elegans chemosensory bioassay for seven transmembrane receptor ligands” (SmithKline Beecham Corporation, priority 2000, dated 2005).

System: C. elegans
Experiment: Consumption of GFP-expressing bacteria by a culture of C. elegans (fluorescent plate reader)
Type: in vivo, Caenorhabditis elegans
Experimental: Two cultures of C. elegans and GFP-expressing bacteria were placed in microtiter wells. In one well, a lethal concentration of 10 nanomolar ivermectin was placed. The GFP fluorescence in the wells was determined by a fluorescent plate reader instrument at the initial time, and after two days of culture.
As the C. elegans grow and reproduce, the E. coli lawn is diminished until no bacteria remain. Therefore, the reduction of the bacterial lawn is a measurement of an actively feeding population of C. elegans. The rate of decrease of the lawn is proportional to the number of feeding animals present. […] The consumption of bacteria can be used as an indirect indicator of the distribution of animals. Substances can be spotted onto a substrate in an array, and a uniform lawn of bacteria placed on the substrate, overlaying the array. A test population of C. elegans can be introduced and incubated for a suitable time period to allow consumption of the lawn. If the animals are attracted to a substance, then they will move to that region of the substrate and the bacterial lawn will be diminished at that spot in comparison to the surrounding lawn. Conversely, if a substance repels the animals, then the bacterial lawn at that spot will not be consumed. Thus, bacterial consumption can be used to assay the growth and location of a population of nematodes. If a GFP-expressing bacterial strain is used (Chalfie, et al., supra) as was done in the experiment of Example 3, the variations in bacterial density can be easily detected, for example, by photographing fluorescence intensity.
In this experiment, GFP-expressing bacteria are placed in two microtiter wells along with a population of C. elegans. Because the bacteria express GFP, the amount of bacteria can easily be assayed using a fluorescent plate reader (Cytoflour, Perspective Biosystems). […] Initially, both wells show equivalent levels of bacteria. […] FIG. 3 depicts this experiment. Thus, bacterial consumption can be used to assay the growth and feeding of a population of nematodes. If a GFP-expressing bacterial strain is used (Chalfie, et al., supra) as was done in the experiment shown in FIG. 3, the variations in bacterial density can be easily visualized by photographing fluorescence intensity.

## ivermectin
10 nanomolar ivermectin, after two days of culture
  GFP fluorescence of bacteria in the well (Relative Intensity): GFP fluorescence increases
In vivo
  Effect on C. elegans: kills C. elegans
ivermectin-containing well, after 4 days of culture
  Amount of GFP-expressing bacteria in the well: shows bacterial growth
Microtiter well culture with GFP-expressing bacteria
  Lethal concentration for C. elegans: 10 nM
